From patent US5631246A, “Use of PAF” (The Canadian Red Cross Society, priority 1993, dated 1997)
Like-named read-outs stand apart in the source and are kept apart here.

Experiments:
ECs = test: Cytotoxicity to ECs by dye exclusion test; format: cell-based, human; conditions: BTP-dioxolane preincubation
Method: (§2) Media with or without thrombin (@5 units/mL) served as positive and negative controls respectively. ECs were incubated for 1, 10, 20 or 30 minutes and 1, 2, 4, 6 and 24 hours in the PAF and thrombin time course studies. The EC conditioned media were recovered, centrifuged to remove any cell debris, and then frozen at -80° C. for a maximum period of 4 weeks prior to analyses.

PAF receptor = PAF receptor (Homo sapiens, UniProt P25105); test: Effect of PAF receptor antagonist on release of vWf from ECs; conditions: for % Inhibition of vWf release: 10 μM BTP-dioxolane
Method: as §2
(§3) Endothelial cells (ECs) were harvested from human umbilical cord vein as described by Jaffe et al. ((1973) Culture of Human Endothelial Cells Derived from Umbilical Veins: Identification by Morphologic and Immunologic Criteria, J. Clin. Invest. 52:2745-2756) and modified by Hashemi et al. (1990, supra). Endothelial cells were subcultured in 0.2% (w/v) gelatin-coated, 12-well Linbro™ polystyrene, tissue culture plates (Flow Laboratories, Mississauga, Ontario), then plated at a density of 1-2×10^4 /well and grown to confluence.
(§4) The standard consisted of a pool of plasma from 20 normal individuals previously determined to contain 1 unit of vWf per mL by the procedure of Zimmerman et al. (1977, J. Clin. Invest. 59:984-989). […] For some experiments, the maximum vWf that could be released was determined. Following incubation, the EC conditioned media were recovered and fresh media containing 0.05% (v/v) Tween 20 and 10 μM each of the protease inhibitors D-phenylalanyl-phenylalanyl-arginyl-chloromethyl ketone, D-phenylalanyl-propyl-arginyl-chloromethyl ketone and 1,5-Dansyl-glutamyl-glycyl-arginyl-chloromethyl ketone were added to the EC monolayers of each corresponding well. The cells were freeze-thawed three times and, to assure complete breakdown of the cell membranes as well as the Weibel-Palade bodies, disrupted in a glass homogenizer using a motor-driven teflon pestle. After centrifugation, total vWf concentration was determined in the supernatants.
The following procedure was followed.

endothelial cells (ECs) [1] = test: vWf release from ECs exposed directly to PAF or thrombin
Method: Synthetic PAF (1-O-alkyl-2-acetyl-sn-glyceryl-3-phosphorylcholine; Sigma #P-9525) prepared from bovine heart lecithin (Demopoulos et al. (1979) J. Biol. Chem. 254: 9355-358) was 99% pure by TLC analysis, HPLC analysis indicated this product consisted of 70% C16 and 13% C18 forms of PAF (Mita et al., (1989) Anal. Biochem. 180:131-135). After removal of chloroform, PAF was resuspended in DMEM/F12 culture medium containing 1% Nutridoma-HU (final protein concentration of 40 μM stock solution). After sonication for 3×1 minute periods, the PAF solution was diluted and used immediately.
Media with or without thrombin (@5 units/mL) served as positive and negative controls respectively. ECs were incubated for 1, 10, 20 or 30 minutes and 1, 2, 4, 6 and 24 hours in the PAF and thrombin time course studies. The EC conditioned media were recovered, centrifuged to remove any cell debris, and then frozen at -80° C. for a maximum period of 4 weeks prior to analyses. […] Where appropriate ECs were preincubated with BTP-dioxolane which was not cytotoxic to the cells as determined by the dye exclusion test.
as §3, §4
In order to examine the responsiveness of ECs to direct PAF exposure, we incubated the monolayers of ECs with 0-300 pico molar (pM) PAF for a period of 4 hours at 37° C. and determined the amount of vWf released into the EC media. […] To determine the time course of PAF effects on vWf release, 300 pM PAF was incubated with monolayers of ECs for 1, 10, 20 and 30 minutes as well as for 1, 2, 4, 6 and 24 hours. […] As a control, the vWf release from thrombin stimulated ECs was also determined (FIG. 5).

monocytes [2] = test: Secretion of prostaglandins and adenine nucleotides from monocytes; format: cell-based, human; conditions: 100 ng DDAVP/mL, 30 min
Method: (§1) Prostaglandins E2, F2a, and I2 (assayed as 6 keto-PGF1a) were assayed using the iodinated or tritiated (for PGF2a) kits purchased from Amersham Canada (Oakville, Ontario). ATP and ADP were assayed using the adenosine-5'-triphosphate bioluminescent kit from Sigma (St. Louis, Mo.). Prior to assay, ADP present in standards or in samples was converted to ATP (Holmsen et al. (1966) Anal. Biochem. 17:456-473; (1972) Anal. Biochem. 46:489-501). Luminescence was measured using a Lumi-Aggregometer (Chrono-Log Corp., Havertown, Pa.).

monocytes [3] = test: PAF secretion from monocytes (RIA); format: cell-based, human
Text: In addition, PAF was extracted from the monocyte supernatants and assayed using the following highly specific and sensitive radioimmunoassay. As the most predominant bioactive forms of PAF secreted by monocytes are the C16 and C18 alkyl moieties (Sugiura and Waku, (1987) Platelet-Activating Factor and Related Lipid Mediators, F. Snyder Ed. Plenum Press, N.Y. 55-85; Prescott et al. (1990) Proc. Natl. Acad. Sci. U.S.A. 81:3534-3538), PAF was quantitated using the highly specific and sensitive ^125 I-RIA kit manufactured by NEN Research Products (Du Pont Canada, Mississauga, Ontario, Canada) following extraction of the monocyte supernatants with 5 mL each of methanol and chloroform and 3.5 mL of water per mL of sample. The recovered chloroform layers, dried under nitrogen, were reconstituted in the PAF assay kit buffer prior to analysis. The development, specificity, and sensitivity of this assay for the C16 and C18 forms of PAF have been previously documented (Smal et al. (1989) Molec. Immunol. 26:711-719; (1990) J. Molec. Recognition 3:169-173; (1990) J. Immunol. Methods 128:183-188; (1990) J. Reprod. Fert. 90:419-425). […] Iodinated samples were counted on a Beckman Gamma 5500 counter (Beckman Instruments, Fullerton, Calif.). The 3H-PAF (10 Ci/mmole) and ^125 I-PAF (2200 Ci/mmole) consisted of a 1:1 admixture of the C16 and Cla forms of PAF.
Alternatively, PAF that has previously associated with monocytes following initial secretion may be released again into the supernatant.

monocytes [4] = test: Cytokine secretion from monocytes (ELISA); format: cell-based, human; conditions: 100 ng DDAVP/mL, 30 min
Text: Cytokines, IL-1β, IL-6, IL-8, TNF-α, GM-CSF, and G-CSF were quantitated by specific ELISA using human recombinant cytokines as standards. The Quantikine™ kits for measuring IL-1β, IL-6, IL-8, TNF-α and G-CSF were purchased from R & D Systems (Minneapolis, Minn.). The GM-CSF assay kit came from Genzyme Corp. (Boston, Mass.). The minimum detectable levels of cytokines were: 4.5 pg/mL (IL-1β), 3.5 pg/mL (IL-6), 4.7 pg/mL (IL-8), 4.8 pg/mL (TNF-α), 11.2 pg/mL (G-CSF) and 10.0 pg/mL (GM-CSF).

endothelial cells (ECs) [5] = test: vWf release from ECs exposed to supernatants of DDAVP-treated monocytes (vWf releasing factor)
Method: Media with or without thrombin (@5 units/mL) served as positive and negative controls respectively. […] The EC conditioned media were recovered, centrifuged to remove any cell debris, and then frozen at -80° C. for a maximum period of 4 weeks prior to analyses. […] Where appropriate ECs were preincubated with BTP-dioxolane which was not cytotoxic to the cells as determined by the dye exclusion test.
as §3
Following centrifugation at 300×g for 15 minutes at 20° C., the top layer of plasma was recovered and respun at 2,000×g for 15 minutes to provide cell-free autologous plasma. The remaining plasma and buffy coat were resuspended, adjusted to 35 mL per 60 mL volume of whole blood with PBS (Dulbecco's phosphate buffered saline-Gibco BRL), and layered over 12 ml of Histopaque 1077 (Sigma). The MNC recovered by centrifugation at 300×g for 30 minutes were washed 3×in PBS+5% (v/v) fetal calf serum (FCS; Flow Laboratories, McLean, Va.). The cell concentration was adjusted to 5×10^6 /mL in RPMI+5% FCS and then added to the pretreated tissue culture plates described by Hashemi et al. (1990, supra).
The method of Freundlich and Avdolomic (1983, Use of Gelatin/Plasma Coated Flasks for Isolating Human Peripheral Blood Monocytes, J. Immunol. Methods, 62:31-37) as modified by Hashemi et al. (1990, supra) was used to purify monocytes from mononuclear cells. The mononuclear cell suspension (5×10^6 cells/mL) was incubated for 18-20 hours at 37° C. in a CO2 incubator. The monocytes were harvested with 10 mM EDTA (Gibco Laboratories) in RPMI+5% FCS and following centrifugation were washed 3×in media and resuspended in serum-free medium (DMEM/F12, Gibco) containing 1% Nutridoma-HU (Boehringer-Mannheim Canada, Laval, Quebec). The recovered cells met morphological criteria for monocytes and were 90% positive for monocyte CD14 surface marker determined by direct immunofluorescence using fluorescent conjugated anti-Leu-M3 (CD14) monoclonal antiserum (Becton-Dickinson, Mountain View, Calif.). Cell viability was greater than 90% as determined by trypan blue dye exclusion (Gibco). […] Cell suspensions were incubated in sterile Petri dishes, previously coated with 2% gelatin for 1 hour at 37° C., for 30-minutes or for 1, 2, 4, 6 and 24 hours. Monocyte-conditioned media were centrifuged at 2,000×g for 15 minutes and frozen at -80° C. prior to incubation with the EC monolayer cultures. For some experiments, conditioned media were lipid extracted as described prior to the PAF radioimmunoassay below. The dried extracts were reconstituted with fresh DMEM/F12+1% Nutridoma-HU media, briefly sonicated and added to EC cultures.

[6] = system: von Willebrand factor and factor VIII; conditions: cited from earlier work
endothelial cells (ECs) [7] = test: PGI2 release from ECs exposed to supernatants of DDAVP-treated monocytes; format: cell-based, human
Method: as §1
If the data are expressed as a percentage increase in PGI2 released from ECs exposed to supernatants from DDAVP-treated compared to untreated monocytes, in order to control for variability in the basal response between the various monocyte and EC preparations, a 60% increase in PGI2 release was observed (P<0.05).

endothelial cells = conditions: direct DDAVP treatment; cited from earlier work

PAF receptor, sequence (P25105 whole entry): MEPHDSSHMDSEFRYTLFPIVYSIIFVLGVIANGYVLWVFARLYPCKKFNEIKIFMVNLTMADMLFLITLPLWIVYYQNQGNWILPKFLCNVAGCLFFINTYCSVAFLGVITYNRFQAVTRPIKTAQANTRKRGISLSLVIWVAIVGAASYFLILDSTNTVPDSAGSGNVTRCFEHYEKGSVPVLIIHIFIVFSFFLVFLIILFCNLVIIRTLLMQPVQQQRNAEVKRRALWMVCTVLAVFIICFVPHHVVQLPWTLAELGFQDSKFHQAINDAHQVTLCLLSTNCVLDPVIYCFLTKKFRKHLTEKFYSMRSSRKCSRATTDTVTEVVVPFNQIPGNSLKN

With COc1cc([C@H]2OC[C@H](c3cc(OC)c(OC)c(OC)c3)O2)cc(OC)c1OC (racemic) [BTP-dioxolane] the “cytotoxicity to ECs” value (ECs) was “not cytotoxic”, the “% Inhibition of vWf release” value (PAF receptor; supernatants from monocytes treated with 100 ng DDAVP/mL, P <0.001) was 82% and the “% Inhibition of vWf release” value (PAF receptor; supernatants from untreated monocytes (DDAVP 0 ng/mL), P <0.005) was 68%. The “% Inhibition of vWf release” value (PAF receptor; thrombin 5 U/mL, P <0.025) was 15%, the “inhibition of the PAF-dependent release of vWf” value (PAF receptor; preincubated 10 minutes with ECs, final concentration 10 μM) was “effective inhibition of the PAF-dependent release of vWf” and the inhibition at 10 µM (PAF receptor; read-out: % Inhibition of vWf release, 10 μM BTP-dioxolane, PAF 100 pM, P <0.001) was 74.7 ± 4%. It also gave an inhibition at 10 µM (PAF receptor; read-out: % Inhibition of vWf release, 10 μM BTP-dioxolane, PAF 300 pM, P <0.005) of 83.2 ± 11%, an inhibition at 10 µM (PAF receptor; read-out: % Inhibition of vWf release, 10 μM BTP-dioxolane, supernatants from monocytes treated with 100 ng DDAVP/mL, P <0.001) of 81.8 ± 7% and an inhibition at 10 µM (PAF receptor; read-out: % Inhibition of vWf release, 10 μM BTP-dioxolane, supernatants from untreated monocytes (DDAVP 0 ng/mL), P <0.005) of 68.4 ± 10.4%. For the same compound, the inhibition at 10 µM (PAF receptor; read-out: % Inhibition of vWf release, 10 μM BTP-dioxolane, thrombin 5 U/mL, P <0.025) was 14.7 ± 4% and the inhibition at 10 µM (PAF receptor; read-out: inhibition of the effects of PAF on vWf release from ECs, BTP-dioxolane 10 μM, 100 pM or 300 pM PAF) was 75 to 83%.

In the case of Thrombin, the “Increase in vWf release (%), BTP-dioxolane absent” value (endothelial cells (ECs) [1]; thrombin 5 U/mL, 4 hours, n=5) is reported as 123.5 ± 11.3%, the “vWf release from ECs (optimal effect)” value (endothelial cells (ECs) [1]; thrombin (5 units/mL), 10 minutes, P<0.001) is reported as 368% and the “vWf release from ECs” value (endothelial cells (ECs) [1]; thrombin (5 units/mL), 30 minutes) is reported as 261%. The “vWf release from ECs” value (endothelial cells (ECs) [1]; thrombin (5 units/mL), 1 hour) was 137% and the “vWf release from ECs” value (endothelial cells (ECs) [1]; thrombin (5 units/mL), 24 hours) was 88%.

With NC(=O)CC[C@@H]1NC(=O)[C@H](Cc2ccccc2)NC(=O)[C@H](Cc2ccc(O)cc2)NC(=O)CCSSC[C@@H](C(=O)N2CCC[C@H]2C(=O)N[C@H](CCCN=C(N)N)C(=O)NCC(N)=O)NC(=O)[C@H](CC(N)=O)NC1=O [DDAVP, 1-deamino-8-D-arginine vasopressin] the “effect on secretion of PGE2, PGF2a, PGI2, ATP or ADP from monocytes” value (monocytes [2]) was “no significant effect”, the ADP secreted (monocytes [2]; n=5, N.S. vs 0 ng/mL: 16.8 ± 5.5) was 17.6 ± 12.2 nM and the PGF2α secreted (monocytes [2]; n=5, N.S. vs 0 ng/mL: 333 ± 116) was 406 ± 124 pg/mL. For the same compound, the ATP secreted (monocytes [2]; n=6, N.S. vs 0 ng/mL: 10.3 ± 6.6) was 7.4 ± 4.4 nM, the PGI2 secreted (monocytes [2]; n=9, N.S. vs 0 ng/mL: 106 ± 17) was 107 ± 18 pg/mL and the PGE2 secreted (monocytes [2]; n=10, N.S. vs 0 ng/mL: 3.61 ± 0.80) was 4.37 ± 1.70 pg/mL. The “time course of PAF in monocyte supernatants” value (monocytes [3]; 100 ng DDAVP/mL vs unstimulated, at any point in time, 30 min to 24 h, FIG. 7A) was “higher levels of PAF present in post-DDAVP monocyte supernatants”, the “time course of PAF secretion from monocytes” value (“time course of PAF secretion” below) (monocytes [3]; 100 ng DDAVP/mL, 2-4 hours, FIG. 7A) was “declined sharply” and the “time course of PAF secretion” value (monocytes [3]; 100 ng DDAVP/mL, 6 hours, FIG. 7A) was “increased again”. The “time course of PAF secretion” value (monocytes [3]; 100 ng DDAVP/mL, 24 hours, FIG. 7A) was “still elevated”, the “DDAVP concentration of maximum PAF secretion from monocytes” value (monocytes [3]; 30 minutes exposure, (169 nM)) was 200 ng DDAVP/mL and the “ED50 for PAF secretion from monocytes” value (monocytes [3]; 30 minutes, estimated) was 85 ng DDAVP/mL. For the same compound, the “PAF release from monocytes” value (monocytes [3]; FIG. 1B, 100 ng DDAVP/mL, 30 min, cf. 94 pM untreated, P<0.001) was 284 pM, the “maximum PAF secretion from monocytes” value (monocytes [3]; at 200 ng DDAVP/mL (169 nM), 30 minutes) was 480 fmol/mL and the TNF-α secreted (monocytes [4]; n=6, N.S. vs 0 ng/mL: 4 ± 3) was 0 ± 0 pg/mL. The IL-6 secreted (monocytes [4]; n=6, N.S. vs 0 ng/mL: 23 ± 9) was 26 ± 2 pg/mL, the IL-1β secreted (monocytes [4]; n=6, N.S. vs 0 ng/mL: 319 ± 118) was 271 ± 93 pg/mL and the IL-8 secreted (monocytes [4]; n=12, N.S. vs 0 ng/mL: 690 ± 257) was 639 ± 214 pg/mL. For the same compound, the “vWf release from ECs” value (endothelial cells (ECs) [5]; FIG. 1A, supernatants from monocytes with 100 ng DDAVP/mL 30 min, ECs 4 hours, n=26, cf. 104% untreated, P<0.001) was 186%, the “enhancement of vWf release from ECs by lipid extracts of supernatants” value (endothelial cells (ECs) [5]; FIG. 3, DDAVP-treated monocytes (100 ng/mL), reconstituted lipid extract, n=7, cf. 71% untreated, P<0.05) was 195% and the “vWf releasing factor (%)” value (endothelial cells (ECs) [5]; Table 1, IL-1β to G-CSF set, monocytes with 100 ng DDAVP/mL 30 min, ECs 4 hours, n=6, P <0.05 vs 0 ng/mL: 131 ± 15) was 234 ± 35%. The “vWf releasing factor (%)” value (endothelial cells (ECs) [5]; Table 1, IL-8 set, 100 ng DDAVP/mL 30 min, ECs 4 hours, n=12, P <0.05 vs 0 ng/mL: 147 ± 29) was 291 ± 58%, the “vWf releasing factor (%)” value (endothelial cells (ECs) [5]; Table 2, ATP/ADP set, 100 ng DDAVP/mL 30 min, ECs 4 hours, n=6, P <0.025 vs 0 ng/mL: 99 ± 17) was 211 ± 33% and the “vWf releasing factor (%)” value (endothelial cells (ECs) [5]; Table 2, PGE2/PGF2α set, 100 ng DDAVP/mL 30 min, ECs 4 hours, n=10, P <0.01 vs 0 ng/mL: 122 ± 16) was 307 ± 62%. For the same compound, the “vWf releasing factor (%)” value (endothelial cells (ECs) [5]; Table 2, PGI2 set, 100 ng DDAVP/mL 30 min, ECs 4 hours, n=9, P <0.05 vs 0 ng/mL: 153 ± 35) was 347 ± 66%, the “time course of vWf release from ECs” value (endothelial cells (ECs) [5]; supernatants from DDAVP-stimulated vs unstimulated monocytes, except at 2 hours, FIG. 7B) was “consistently higher levels of vWf released” and the “DDAVP concentration of maximum vWf release from ECs” value (endothelial cells (ECs) [5]; supernatants from DDAVP-treated monocytes, ECs 4 hours) was 100 ng DDAVP/mL. The “ED50 for vWf release from ECs” value (endothelial cells (ECs) [5]; supernatants from DDAVP-treated monocytes, ECs 4 hours, estimated) was 45 ng DDAVP/mL, the “Increase in vWf release (%), BTP-dioxolane absent” value (endothelial cells (ECs) [5]; supernatants from monocytes treated with 100 ng DDAVP/mL 30 min, ECs 4 hours, n=5, 0 ng/mL: 92.6 ± 14.7%) was 197.2 ± 22.8% and the “vWf release from ECs, dose response” value (endothelial cells (ECs) [5]; supernatants from monocytes with 10-800 ng DDAVP/mL, ECs 4 hours at 37° C.) was “significant increases in vWf release were observed at all concentrations tested”. For the same compound, the “plasma concentration of von Willebrand factor and factor VIII in vivo” value ([6]; Mannucci et al.) was “causes an increase in the plasma concentration”, the “plasma concentration of von Willebrand factor and factor VIII” value ([6]; patients with mild or moderate haemophilia A or von Willebrand disease and normal individuals) was “increase the plasma concentration” and the “increase in PGI2 release from ECs” value (endothelial cells (ECs) [7]; DDAVP-treated compared to untreated monocyte supernatants, P<0.05) was 60%. For the same compound, the “PGI2 release from ECs” value (endothelial cells (ECs) [7]; supernatants from DDAVP-treated monocytes, cf. 332±107 untreated, corrected for PGI2 in supernatants) was 538 ± 136 pg/mL and the “secretion of vWf by endothelial cells in vitro” value (endothelial cells) was “no increased secretion of vWf”.
